One assay addresses KRAS G12C (Homo sapiens (Human), UniProt P01116, C118A/G12C). Briefly: 2 h coupled exchange assay. It counts as biochemical. The note with it: Avg 2 h Coupled exchange IC50, 2 h compound pre-incubation, SOS-mediated nucleotide exchange. On the procedure:
The term “2 h coupled exchange assay” or “20 h coupled exchange assay” as used herein refers to the assay described in the Section entitled “BIOLOGICAL EVALUATION.”

In assay [1] the test system is A549 (human lung carcinoma) cells. Briefly: Cell Viability Assay (CellTiter-Glo), A549. The assay is classed as cell-based. The note with it: Homo sapiens, A549, 72 h. In a few lines:
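RPMI 1640/10% FBS; seed 1.67E+04 cells/mL, o/n 37° C., 5% CO2; serial-dilution cmpd 72 h; CellTiter-Glo luminescence vs DMSO; 4-parameter logistic fit → IC50.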
On the technique in general: In ATP-based viability assays light output follows the ATP content of the culture.

Assay [2] deals with MIA PaCa-2 (human pancreatic carcinoma) cells. Nature of the assay: Cell Viability Assay (CellTiter-Glo), MIA PaCa-2. As to conditions: Homo sapiens, MIA PaCa-2, 72 h. It counts as cell-based. On the procedure: Serially-diluted compound or DMSO was added to the cells, and plates were incubated at 37° C., 5% CO2 for 72 h. Cell viability was measured using a CellTiter-Glo® Luminescent Cell Viability Assay kit (Promega) according to the manufacturer's protocol. The luminescence signal of treated samples was normalized to DMSO control, and data were analyzed using a 4-parameter logistic model to calculate IC50 values.

Sequence of KRAS G12C (P01116 other isoform, or with tags, fused parts or gaps G12C/C118A): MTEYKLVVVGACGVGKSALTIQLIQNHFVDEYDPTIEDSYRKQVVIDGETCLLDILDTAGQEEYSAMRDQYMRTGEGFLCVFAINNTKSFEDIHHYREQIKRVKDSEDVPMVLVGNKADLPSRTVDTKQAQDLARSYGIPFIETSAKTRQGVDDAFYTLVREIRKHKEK

As usually defined, the IC50 is the concentration that gives 50% inhibition. Lower therefore signals greater potency. In the case of `C=CC(=O)N1CC2(C1)CN(c1nc3c(c(-c4c(C)ccc5[nH]ncc45)c1C#N)CCC(C)(C)C3)CC2(F)F` [Example 2-105, 2-(8,8-difluoro-2-(2-propenoyl)-2,6-diazaspiro[3.4]octan-6-yl)-7,7-dimethyl-4-(5-methyl-1H-indazol-4-yl)-5,6,7,8-tetrahydro-3-quinolinecarbonitrile], the concentration for half-maximal inhibition (IC50) was determined as 91 nM against KRAS G12C, 3420 nM in assay [1] and 425 nM in assay [2].
On to `C=CC(=O)N1CC2(CCN(c3cc4c(c(-c5c(C)c(Cl)cc6cnn(C)c56)c3C#N)OCCC4)[C@H]2C)C1` [Example 2-107, 8-(5-chloro-1,6-dimethyl-1H-indazol-7-yl)-6-((5S)-5-methyl-2-(2-propenoyl)-2,6-diazaspiro[3.4]octan-6-yl)-3,4-dihydro-2H-chromene-7-carbonitrile], for which the half-maximal inhibitory concentration (IC50) against KRAS G12C is 17 nM; in assay [1], above 5000 nM; in assay [2], 7 nM.
Regarding `C=CC(=O)N1CC2(CCN(c3cc4c(c(-c5c(C)c(Cl)cc6cnn(C)c56)c3Cl)OCCC4)C2)C1` [Example 2-110, 1-(6-(7-chloro-8-(5-chloro-1,6-dimethyl-1H-indazol-7-yl)-3,4-dihydro-2H-chromen-6-yl)-2,6-diazaspiro[3.4]octan-2-yl)-2-propen-1-one], the IC50 on KRAS G12C is 53 nM; in assay [1], above 5000 nM; in assay [2] it was 20 nM.
Consider `C=CC(=O)N1CC2(CCN(c3nc(-c4c(C)ccc5[nH]ncc45)c4c(n3)N(C)CC4)C2)C1` [Example 5, 1-(6-(7-methyl-4-(5-methyl-1H-indazol-4-yl)-6,7-dihydro-5H-pyrrolo[2,3-d]pyrimidin-2-yl)-2,6-diazaspiro[3.4]octan-2-yl)prop-2-en-1-one], for which the values for the IC50 (at KRAS G12C; in assay [1]; in assay [2]) were 181000 nM, above 25000 nM and 12900 nM, respectively.
On to `C=CC(=O)N1CC2(CCN(c3cc4c(ncn4C)c(-c4c(C)ccc5[nH]ncc45)c3C#N)C2)C1` [Example 7, 1-methyl-4-(5-methyl-1H-indazol-4-yl)-6-(2-(2-propenoyl)-2,6-diazaspiro[3.4]octan-6-yl)-1H-benzimidazole-5-carbonitrile], for which the IC50 against KRAS G12C is 879 nM; in assay [1] it was above 5000 nM; in assay [2] it was 3420 nM.
Consider `C=CC(=O)N1CC2(CCN(c3nc4c(c(-c5cc(O)cc(C)c5Cl)c3C)COC(C)(C)C4)C2)C1` [Example 12-1, 1-(6-(4-(2-chloro-5-hydroxy-3-methylphenyl)-3,7,7-trimethyl-7,8-dihydro-5H-pyrano[4,3-b]pyridin-2-yl)-2,6-diazaspiro[3.4]octan-2-yl)prop-2-en-1-one], for which the values for the IC50 (at KRAS G12C; in assay [1]; in assay [2]) were 94 nM, above 5000 nM and 88 nM, respectively.
As to `C=CC(=O)N1CC2(CCN(c3nc4c(c(-c5cc(O)cc(Cl)c5C)c3C)COC(C)(C)C4)C2)C1` [Example 12-2, 1-(6-(4-(3-chloro-5-hydroxy-2-methylphenyl)-3,7,7-trimethyl-7,8-dihydro-5H-pyrano[4,3-b]pyridin-2-yl)-2,6-diazaspiro[3.4]octan-2-yl)prop-2-en-1-one], the 50% inhibitory concentration (IC50) at KRAS G12C was 41 nM; in assay [1] it was above 5000 nM; in assay [2], 38 nM.
As for `C=CC(=O)N1CC2(CCN(c3nc4c(c(-c5c(C)cc(F)c6[nH]ncc56)c3C#N)C[C@H]3C[C@@H]4C3(C)C)C2)C1` [Example 12-11, (1R,9R)-6-(7-fluoro-5-methyl-1H-indazol-4-yl)-10,10-dimethyl-4-(2-(2-propenoyl)-2,6-diazaspiro[3.4]octan-6-yl)-3-azatricyclo[7.1.1.0^2,7] undeca-2,4,6-triene-5-carbonitrile], the IC50 was determined as 36 nM at KRAS G12C, 3780 nM in assay [1] and 20 nM in assay [2].

Source of the values: US20240059703A1 (AMGEN INC., priority 2021, published 2024).
